Test results: ChEMBL document CHEMBL1146716, “(4-Piperidinylphenyl)aminoethyl amides as a novel class of non-covalent cathepsin K inhibitors” (Bioorg Med Chem Lett, 2004)
pIC50, pKi: −log10 of the molar value. Peptide text beside a SMILES is read from it. * marks the point of attachment. Cbz = O=C(OCc1ccccc1)*

Key:
[1] = target: T1, Procathepsin L (Homo sapiens, UniProt P07711); assay: Inhibitory activity against recombinant human cathepsin L
[2] = species: Mus musculus; assay: Inhibitory activity against bone resorption in mouse; assay type: functional
[3] = species: Homo sapiens; assay: Inhibitory activity against bone resorption in human; assay type: functional; details: Bone element
[4] = target: Cathepsin B (Homo sapiens, UniProt P07858); assay: Inhibitory activity against recombinant human cathepsin B
[5] = target: T2, Cathepsin K (Homo sapiens, UniProt P43235); assay: Inhibitory activity against recombinant human cathepsin K
T2 sequence (P43235 whole entry): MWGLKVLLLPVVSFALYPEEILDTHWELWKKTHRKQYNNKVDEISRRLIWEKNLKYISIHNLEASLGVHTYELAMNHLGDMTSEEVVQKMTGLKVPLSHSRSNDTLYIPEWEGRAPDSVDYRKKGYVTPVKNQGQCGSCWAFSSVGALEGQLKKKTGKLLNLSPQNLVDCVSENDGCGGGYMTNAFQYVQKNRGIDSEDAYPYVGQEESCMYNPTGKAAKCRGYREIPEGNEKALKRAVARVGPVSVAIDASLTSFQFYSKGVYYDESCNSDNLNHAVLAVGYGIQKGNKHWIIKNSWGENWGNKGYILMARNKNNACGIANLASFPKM

[6] = target: T1, Procathepsin L; assay: Inhibitory activity against recombinant human cathepsin L (1.2 nM)

T1 sequence (P07711 whole entry): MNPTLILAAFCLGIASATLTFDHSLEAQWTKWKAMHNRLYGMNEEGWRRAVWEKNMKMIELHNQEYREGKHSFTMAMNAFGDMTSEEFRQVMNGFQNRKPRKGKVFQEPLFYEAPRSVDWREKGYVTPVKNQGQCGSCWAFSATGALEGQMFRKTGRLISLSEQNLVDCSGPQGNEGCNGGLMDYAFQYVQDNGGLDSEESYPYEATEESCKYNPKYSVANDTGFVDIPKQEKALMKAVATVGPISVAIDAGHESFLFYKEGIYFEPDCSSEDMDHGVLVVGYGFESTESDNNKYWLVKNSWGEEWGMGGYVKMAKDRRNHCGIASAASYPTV

| Compound | pIC50 [1] | pIC50 [2] | pIC50 [3] | pKi [4] | pIC50 [5] | pIC50 [6] |
| --- | --- | --- | --- | --- | --- | --- |
| C[C@@H](NC(=O)OCc1ccccc1)C(=O)N[C@@H](CCc1ccccc1)CNc1ccc(N2CCCCC2)cc1 | 5.39 | – | – | 5.68 | 8.05 | – |
| O=C(N[C@@H](CCc1ccccc1)CNc1ccc(N2CCCCC2)cc1)C1CCCN1C(=O)OCc1ccccc1 (stereo not given in full) | 5.11 | – | – | < 5.00 | 7.92 | – |
| CC(C)C[C@H](NC(=O)OCc1ccccc1)C(=O)N[C@H](C=O)Cc1ccccc1 (Cbz-Leu-Phe-aldehyde) | 7.70 | – | – | – | – | – |
| CC(C)C[C@H](NC(=O)OCc1ccccc1)C(=O)N[C@H](CNc1ccc(-c2ccccc2)cc1)Cc1ccccc1 | 7.49 | – | – | – | 6.15 | – |
| CSCC[C@@H](NC(=O)OCc1ccccc1)C(=O)N[C@@H](CCc1ccccc1)CNc1ccc(N2CCCCC2)cc1 | 7.44 | – | – | 7.92 | 8.52 | – |
| CC(C)C[C@H](NC(=O)OCc1ccccc1)C(=O)N[C@H](CNc1ccccc1)Cc1ccccc1 | 6.64 | – | – | – | 5.96 | – |
| O=C(CNC(=O)OCc1ccccc1)N[C@@H](CCc1ccccc1)CNc1ccc(N2CCCCC2)cc1 | < 5.00 | – | – | < 5.00 | < 5.00 | – |

The next compounds have a higher pIC50 [1] than those just listed; values first:

| pIC50 [1] | pIC50 [2] | pIC50 [3] | pKi [4] | pIC50 [5] | pIC50 [6] | Compound |
| --- | --- | --- | --- | --- | --- | --- |
| 9.00 | 6.48 | 6.25 | 8.15 | 8.40 | – | CC(C)[C@@H](NC(=O)OCc1ccccc1)C(=O)N[C@@H](CCc1ccccc1)CNc1ccc(N2CCCCC2)cc1 |
| 9.00 | – | – | 6.78 | 8.52 | – | O=C(N[C@H](Cc1ccccc1)C(=O)N[C@@H](CCc1ccccc1)CNc1ccc(N2CCCCC2)cc1)OCc1ccccc1 |
| 8.70 | – | – | – | 7.82 | – | CC(C)C[C@H](NC(=O)OCc1ccccc1)C(=O)N[C@H](CNc1ccc(N2CCOCC2)cc1)Cc1ccccc1 |
| 9.00 | – | – | 6.97 | 8.10 | – | O=C(N[C@H](Cc1ccc(O)cc1)C(=O)N[C@@H](CCc1ccccc1)CNc1ccc(N2CCCCC2)cc1)OCc1ccccc1 |
| 8.70 | 6.00 | 6.00 | – | 8.00 | – | CC(C)C[C@H](NC(=O)OCc1ccccc1)C(=O)N[C@H](CNc1ccc(N2CCCCC2)cc1)Cc1ccccc1 |
| 8.89 | – | – | – | – | 8.30 | CSCC[C@@H](C=O)NC(=O)[C@H](CC(C)C)NC(=O)OCc1ccccc1 (Cbz-Leu-Met-aldehyde) |
| 8.05 | – | – | 5.01 | 7.85 | – | O=C(N[C@H](CCc1ccccc1)C(=O)N[C@@H](CCc1ccccc1)CNc1ccc(N2CCCCC2)cc1)OCc1ccccc1 |
| 8.70 | – | – | 6.18 | 8.30 | – | CC(C)C[C@@H](NC(=O)OCc1ccccc1)C(=O)N[C@@H](CCc1ccccc1)CNc1ccc(N2CCCCC2)cc1 |
| 9.00 | – | – | 5.47 | 7.32 | – | O=C(N[C@H](CC1C=Nc2ccccc21)C(=O)N[C@@H](CCc1ccccc1)CNc1ccc(N2CCCCC2)cc1)OCc1ccccc1 (stereo not given in full) |
